Laboratory results reported in patent US12514871B2, “Pegylated menaquinol compositions and methods of treatment” (Epizon Pharma, Inc., priority 2022, dated 2026).
Where “and” joins values, the source holds several entries; their conditions need not be identical. Equal values may be shown once. Each block holds one molecule with its values, some of them ahead of it.

Tests used:
[1] = Single dose oral pharmacokinetics study in male Sprague Dawley rats; assay type: in vivo, Rat; settings: for Plasma Concentration of Menaquinone-7, Mean (comparative table): G1: Menaquinone-7 oral
[2] = Clinical observations in the single dose oral pharmacokinetics study; assay type: in vivo, Rat; settings: oral 1000 μg per kg body weight, till 48 h post dose
[3] = Single dose oral pharmacokinetics study in male Sprague Dawley rats; assay type: in vivo, Rat; settings: for Plasma Concentration of Menaquinone-7, Mean (comparative table): G1: Menaquinone-7 oral; for Plasma Concentration of Menaquinone-7, Mean / Plasma Concentration of Menaquinone-7, individual animals: fasted
Method: Male Sprague Dawley rats aged 8-10 weeks and weighing around 202-223 grams are used for in vivo testing. Animals are fasted overnight with free access to water. Animals are split into 4 groups G1 to G4, each group containing 3 rats. To determine the bioavailability, the test items are separately dissolved in corn oil to obtain homogenous formulations. Animals are administered with test items by oral gavage, animals of G1 received 1088 μg, G2 received 1073 μg, G3 and G4 received 1000 μg per kg body weight dose of compound Ia.1, m=9, n=7 (G1), of compound Ia.1, m=9, n=9 (G2), menaquinone-7 (G3) and menaquinone-9 (G4) respectively. The doses of Ia.1 (n=7) (G1), of Ia.1 (n=9) were adjusted for the menaquinol content. Blood samples are collected at various time points during the next 48 hours post dose.
Blood samples were collected and transferred to tubes containing K2EDTA and immediately placed on ice for plasma preparations. Plasma was prepared by centrifugation at 3500 g for 10 min, aliquots are frozen at −80° C. until analysis. Quantification of analyte in plasma is determined by LC-MS-MS analysis. Plasma PK parameters are calculated using WinNonlin software.
Approximately 5 mg of Menaquinone-7 was weighed and transferred to a graduated tube. Then 10 mL of sunflower oil was added and vortex mixed thoroughly until the test item is completely dissolved. The formulation was prepared in dark room under monochromatic light. The final strength of the formulation was 500 μg/mL. The formulation was prepared fresh before administration. […]

caspase-3 = settings: at a concentration of 10 mcmol/L; cited from earlier work
[4] = Menaquinone-7 oral 1000 μg/kg b.w., sunflower oil
[5] = Menaquinone-7 oral 1000 μg/kg b.w., sunflower oil, N 6
[6] = Menaquinone-7 oral 1000 μg/kg b.w., sunflower oil, time 0.00 h
[7] = Menaquinone-7 oral 1000 μg/kg b.w., sunflower oil, time 0.50 h
[8] = Menaquinone-7 oral 1000 μg/kg b.w., sunflower oil, time 1.00 h
[9] = Menaquinone-7 oral 1000 μg/kg b.w., sunflower oil, time 2.00 h
[10] = Menaquinone-7 oral 1000 μg/kg b.w., sunflower oil, time 4.00 h
[11] = Menaquinone-7 oral 1000 μg/kg b.w., sunflower oil, time 6.00 h
[12] = Menaquinone-7 oral 1000 μg/kg b.w., sunflower oil, time 8.00 h
[13] = Menaquinone-7 oral 1000 μg/kg b.w., sunflower oil, time 24.00 h
[14] = Menaquinone-7 oral 1000 μg/kg b.w., sunflower oil, time 48.00 h

Plasma Concentration of Menaquinone-7, Mean (comparative table) ([1]; Time 0.25 h): 0.00 ng/mL
Plasma Concentration of Menaquinone-7, Mean (comparative table) ([1]; Time 24.00 h): 5 ng/mL
Tmax of Menaquinone-7 in plasma, individual animals [1, 4]: 6 h and 8 h and 4 h and 2 h
Plasma Concentration of Menaquinone-7, Mean (comparative table) ([3]; Time 0.00 h): 0.00 ng/mL
Plasma Concentration of Menaquinone-7, Mean (comparative table) ([3]; Time 0.50 h): 3 ng/mL
Plasma Concentration of Menaquinone-7, Mean (comparative table) ([3]; Time 1.00 h): 11 ng/mL
Plasma Concentration of Menaquinone-7, Mean (comparative table) ([3]; Time 2.00 h): 15 ng/mL
Plasma Concentration of Menaquinone-7, Mean (comparative table) ([3]; Time 4.00 h): 14 ng/mL
Plasma Concentration of Menaquinone-7, Mean (comparative table) ([3]; Time 6.00 h): 10 ng/mL
Plasma Concentration of Menaquinone-7, Mean (comparative table) ([3]; Time 8.00 h): 6 ng/mL
Plasma Concentration of Menaquinone-7, Mean (comparative table) ([3]; Time 48.00 h): 2 ng/mL
Half life of Menaquinone-7 in plasma, Mean [3, 5]: 23.118 h and 23.12 ± 10.46 h
MRTlast of Menaquinone-7 in plasma, Mean [3, 5]: 15.562 h and 15.56 ± 5.71 h
Tmax of Menaquinone-7 in plasma, Mean [3, 5]: 5.000 h and 5.00 ± 2.10 h
Plasma Concentration of Menaquinone-7, Mean [3, 6]: 0.00 ng/mL
Plasma Concentration of Menaquinone-7, individual animals [3, 6]: 0.00 ng/mL
Plasma Concentration of Menaquinone-7, Mean [3, 7]: 0.00 ng/mL
Plasma Concentration of Menaquinone-7, individual animals [3, 7]: 0.00 ng/mL
Plasma Concentration of Menaquinone-7, Mean [3, 8]: 3.23 ng/mL
Plasma Concentration of Menaquinone-7, Mean [3, 9]: 11.83 ng/mL
Plasma Concentration of Menaquinone-7, Mean [3, 10]: 15.64 ng/mL
Plasma Concentration of Menaquinone-7, Mean [3, 11]: 14.62 ng/mL
Plasma Concentration of Menaquinone-7, Mean [3, 12]: 10.35 ng/mL
Plasma Concentration of Menaquinone-7, Mean [3, 13]: 5.70 ng/mL
Plasma Concentration of Menaquinone-7, Mean [3, 14]: 2.36 ng/mL
plasma exposure of Menaquinone-7 ([3]; after Menaquinone-7 administration, 1000 μg/kg body weight oral, in ng·h/mL): 279.43±74.91
Molecule: CC(C)=CCC/C(C)=C/CC/C(C)=C/CC/C(C)=C/CC/C(C)=C/CC/C(C)=C/CC/C(C)=C/CC1=C(C)C(=O)c2ccccc2C1=O [Menaquinone-7]
Cmax of Menaquinone-7 in plasma, Mean [1, 5]: 19 ng/mL and 19.808 ng/mL and 19.81 ± 4.93 ng/mL
Clinical Observations [2]: Rats showed no adverse clinical signs of toxicity
AUClast of Menaquinone-7 in plasma, individual animals [3, 4]: 352.16 ng·h/mL and 320.74 ng·h/mL and 166.19 ng·h/mL and 339.5 ng·h/mL and 211.72 ng·h/mL and 286.28 ng·h/mL
Cmax of Menaquinone-7 in plasma, individual animals [3, 4]: 19.84 ng/mL and 13.25 ng/mL and 24.87 ng/mL and 23.02 ng/mL and 23.47 ng/mL and 14.4 ng/mL
Half life of Menaquinone-7 in plasma, individual animals [3, 4]: 29.15 h and 30.91 h and 9.47 h and 21.96 h and 12.17 h and 35.05 h
MRTlast of Menaquinone-7 in plasma, individual animals [3, 4]: 19.94 h and 20.91 h and 8.55 h and 14.68 h and 9.02 h and 20.28 h
AUClast of Menaquinone-7 in plasma, Mean [3, 5]: 279.428 ng·h/mL and 279.43 ± 74.91 ng·h/mL
Plasma Concentration of Menaquinone-7, individual animals [3, 8]: 0.00 ng/mL (2×) and 3.56 ng/mL and 5.64 ng/mL and 2.91 ng/mL and 7.26 ng/mL
Plasma Concentration of Menaquinone-7, individual animals [3, 9]: 3.21 ng/mL and 3.69 ng/mL and 9.07 ng/mL and 22.74 ng/mL and 17.91 ng/mL and 14.40 ng/mL
Plasma Concentration of Menaquinone-7, individual animals [3, 10]: 11.45 ng/mL and 7.00 ng/mL and 24.87 ng/mL and 154.39* ng/mL and 23.47 ng/mL and 11.40 ng/mL
Plasma Concentration of Menaquinone-7, individual animals [3, 11]: 19.84 ng/mL and 5.53 ng/mL and 13.11 ng/mL and 23.02 ng/mL and 15.09 ng/mL and 11.15 ng/mL
Plasma Concentration of Menaquinone-7, individual animals [3, 12]: 11.92 ng/mL and 13.25 ng/mL and 8.18 ng/mL and 8.40 ng/mL and 10.89 ng/mL and 9.43 ng/mL
Plasma Concentration of Menaquinone-7, individual animals ([3]; Menaquinone-7 oral 1000 μg/kg b.w., sunflower oil, time 12.00 h): 7.05 ng/mL and 5.90 ng/mL and 4.26 ng/mL and 10.00 ng/mL and 5.48 ng/mL and 4.87 ng/mL
Plasma Concentration of Menaquinone-7, individual animals [3, 13]: 8.16 ng/mL and 9.12 ng/mL and 3.00 ng/mL and 3.96 ng/mL and 4.84 ng/mL and 5.12 ng/mL
Plasma Concentration of Menaquinone-7, individual animals [3, 14]: 3.81 ng/mL and 3.03 ng/mL and 0.00 ng/mL (2×) and 2.74 ng/mL and 4.56 ng/mL

Molecule: vitamin K2 [VK2]
decrease of the activity of caspase-3 (caspase-3): 2.5 fold
